From patent US8592181B2, “Brazzein variant having higher sweetness and method for preparing multi-variant” (Chung-Ang University Industry-Academy Cooperation Foundation, priority 2009, dated 2013)

Test system: human sense of taste
Assay: Sweetness measured by human sense of taste (20 trained subjects, minimum concentration at which sweetness is first sensed)
Format: in vivo
Details: for Multiples of increased sweetness to minor-type brazzein: relative to minor-type brazzein; for Minimum stimulation level in which one senses sweetness for first time: 20 trained subjects; for Sweetness ratios of sucrose (1 g/100 ml) to primary brazzein variants (minor-type brazzein: 2000) / Sweetness ratios of sucrose (1 g/100 ml) to brazzein multi-variants: relative to 1 g/100 ml sucrose threshold
Method: Since the recombinant brazzein according to the present invention is not a sucrose-based compound having a cyclic ring, the sweetness of the recombinant brazzein was not measured using a saccharometer. Therefore, the activity of the recombinant brazzein was measured using the human sense of taste. Sugar content measurement was performed on 20 subjects who were trained to feel substantially the same minimum concentration of sucrose in which they could sense sweetness using a sucrose solution. That is, a concentration of each brazzein variant in which the subjects could sense sweetness for the first time was measured. Also, a sweetness ratio of the sucrose solution to the wild-type brazzein was 1 g/100 ml, which was a minimum stimulation level in which the subjects could sense sweetness. Also, a sweetness ratio of the minor-type brazzein protein to the wild-type brazzein was 500 μg/100 ml, which was a minimum stimulation level in which the subjects could sense sweetness. Therefore, the sweetness was calculated using the sweetness ratios (That is, 1/0.0005=2000 for the minor-type brazzein).
Also, the brazzein multi-variants were measured for activity (sweetness) in the same manner as in Example 3-1.

Row | Compound | Minimum stimulation level in which the subjects could sense sweetness (sucrose solution) [g/100 ml] | Multiples of increased sweetness to minor-type brazzein (primary brazzein variants) | Minimum stimulation level in which one senses sweetness for first time (primary brazzein variants) | Sweetness ratios of sucrose (1 g/100 ml) to primary brazzein variants (minor-type brazzein: 2000) | Multiples of increased sweetness to minor-type brazzein (brazzein multi-variants) | Sweetness ratios of sucrose (1 g/100 ml) to brazzein multi-variants
1 | OC[C@H]1O[C@@](CO)(O[C@H]2O[C@H](CO)[C@@H](O)[C@H](O)[C@H]2O)[C@@H](O)[C@@H]1O [sucrose, reference compound] | 1 |  |  |  |  | 
2 | E35A: primary brazzein variant: Glu at position 35 of minor-type brazzein substituted with Ala (DKCKKVYENYPVSKCQLANQCNYDCKLRKHARSGACFYDEKRNLQCICDYCEY; Brazzein(E35A)) [Brazzein E35A] |  | 0.05 | 10,000 μg/100 ml | 100 |  | 
3 | E35D_E40A: secondary brazzein variant of minor-type brazzein with substitutions E35D and E40A (DKCKKVYENYPVSKCQLANQCNYDCKLRKHAKSGDCFYDAKRNLQCICDYCEY; Brazzein(E35D_E40A)) [Brazzein E35D_E40A] |  |  |  |  | 5 | 10,000
4 | E35D_E40D: secondary brazzein variant of minor-type brazzein with substitutions E35D and E40D (DKCKKVYENYPVSKCQLANQCNYDCKLRKHAKSGDCFYDDKRNLQCICDYCEY; Brazzein(E35D_E40D)) [Brazzein E35D_E40D] |  |  |  |  | 5 | 10,000
5 | E35D_E40K: secondary brazzein variant of minor-type brazzein with substitutions E35D and E40K (DKCKKVYENYPVSKCQLANQCNYDCKLRKHAKSGDCFYDKKRNLQCICDYCEY; Brazzein(E35D_E40K)) [Brazzein E35D_E40K] |  |  |  |  | 4 | 8,000
6 | E35D_E40R: secondary brazzein variant of minor-type brazzein with substitutions E35D and E40R (DKCKKVYENYPVSKCQLANQCNYDCKLRKHAKSGDCFYDRKRNLQCICDYCEY; Brazzein(E35D_E40R)) [Brazzein E35D_E40R] |  |  |  |  | 6 | 12,000
7 | E35H: primary brazzein variant: Glu at position 35 of minor-type brazzein substituted with His (DKCKKVYENYPVSKCQLANQCNYDCKLRKHARSGHCFYDEKRNLQCICDYCEY; Brazzein(E35H)) [Brazzein E35H] |  | 0.08 | 6,000 μg/100 ml | 167 |  | 
8 | E35K: primary brazzein variant: Glu at position 35 of minor-type brazzein substituted with Lys (DKCKKVYENYPVSKCQLANQCNYDCKLRKHARSGKCFYDEKRNLQCICDYCEY; Brazzein(E35K)) [Brazzein E35K] |  | 0.08 | 6,000 μg/100 ml | 167 |  | 
9 | E35R: primary brazzein variant: Glu at position 35 of minor-type brazzein substituted with Arg (DKCKKVYENYPVSKCQLANQCNYDCKLRKHARSGRCFYDEKRNLQCICDYCEY; Brazzein(E35R)) [Brazzein E35R] |  | 0.08 | 6,000 μg/100 ml | 167 |  | 
10 | E40H: primary brazzein variant: Glu at position 40 of minor-type brazzein substituted with His (DKCKKVYENYPVSKCQLANQCNYDCKLRKHARSGECFYDHKRNLQCICDYCEY; Brazzein(E40H)) [Brazzein E40H] |  | 2 | 250 μg/100 ml | 4,000 |  | 
11 | H30A: primary brazzein variant: His at position 30 of minor-type brazzein substituted with Ala (DKCKKVYENYPVSKCQLANQCNYDCKLRKAARSGECFYDEKRNLQCICDYCEY; Brazzein(H30A)) [Brazzein H30A] |  | 0.08 | 6,000 μg/100 ml | 167 |  | 
12 | H30D: primary brazzein variant: His at position 30 of minor-type brazzein substituted with Asp (DKCKKVYENYPVSKCQLANQCNYDCKLRKDARSGECFYDEKRNLQCICDYCEY; Brazzein(H30D)) [Brazzein H30D] |  | 0.16 | 3,000 μg/100 ml | 334 |  | 
13 | H30E: primary brazzein variant: His at position 30 of minor-type brazzein substituted with Glu (DKCKKVYENYPVSKCQLANQCNYDCKLRKEARSGECFYDEKRNLQCICDYCEY; Brazzein(H30E)) [Brazzein H30E] |  | 0.16 | 3,000 μg/100 ml | 334 |  | 
14 | H30K: primary brazzein variant: His at position 30 of minor-type brazzein substituted with Lys (DKCKKVYENYPVSKCQLANQCNYDCKLRKKARSGECFYDEKRNLQCICDYCEY; Brazzein(H30K)) [Brazzein H30K] |  | 2 | 250 μg/100 ml | 4,000 |  | 
15 | H30R_E40A: secondary brazzein variant of minor-type brazzein with substitutions H30R and E40A (DKCKKVYENYPVSKCQLANQCNYDCKLRKRAKSGECFYDAKRNLQCICDYCEY; Brazzein(H30R_E40A)) [Brazzein H30R_E40A] |  |  |  |  | 4 | 8,000
16 | H30R_E40D: secondary brazzein variant of minor-type brazzein with substitutions H30R and E40D (DKCKKVYENYPVSKCQLANQCNYDCKLRKRAKSGECFYDDKRNLQCICDYCEY; Brazzein(H30R_E40D)) [Brazzein H30R_E40D] |  |  |  |  | 4 | 8,000
17 | H30R_E40K: secondary brazzein variant of minor-type brazzein with substitutions H30R and E40K (DKCKKVYENYPVSKCQLANQCNYDCKLRKRAKSGECFYDKKRNLQCICDYCEY; Brazzein(H30R_E40K)) [Brazzein H30R_E40K] |  |  |  |  | 5 | 10,000
18 | H30R_E40R: secondary brazzein variant of minor-type brazzein with substitutions H30R and E40R (DKCKKVYENYPVSKCQLANQCNYDCKLRKRAKSGECFYDRKRNLQCICDYCEY; Brazzein(H30R_E40R)) [Brazzein H30R_E40R] |  |  |  |  | 5 | 10,000
19 | K5A: primary brazzein variant: Lys at position 5 of minor-type brazzein substituted with Ala (DKCKAVYENYPVSKCQLANQCNYDCKLRKHARSGECFYDEKRNLQCICDYCEY; Brazzein(K5A)) [Brazzein K5A] |  | 0.08 | 6,000 μg/100 ml | 167 |  | 
20 | K5D: primary brazzein variant: Lys at position 5 of minor-type brazzein substituted with Asp (DKCKDVYENYPVSKCQLANQCNYDCKLRKHARSGECFYDEKRNLQCICDYCEY; Brazzein(K5D)) [Brazzein K5D] |  | 0.08 | 6,000 μg/100 ml | 167 |  | 
21 | K5E: primary brazzein variant: Lys at position 5 of minor-type brazzein substituted with Glu (DKCKEVYENYPVSKCQLANQCNYDCKLRKHARSGECFYDEKRNLQCICDYCEY; Brazzein(K5E)) [Brazzein K5E] |  | 0.08 | 6,000 μg/100 ml | 167 |  | 
22 | K5H: primary brazzein variant: Lys at position 5 of minor-type brazzein substituted with His (DKCKHVYENYPVSKCQLANQCNYDCKLRKHARSGECFYDEKRNLQCICDYCEY; Brazzein(K5H)) [Brazzein K5H] |  | 0.05 | 10,000 μg/100 ml | 100 |  | 
